≈ marks a conversion by molar mass, not a printed value. Like-named read-outs stand apart in the source and are kept apart here.
Legend:
Type in all cases: cell-based
[1] = tested on: Achromobacter sp. strain 4P; experiment: Disc diffusion antibiotic susceptibility
Description: (§1) A disc diffusion method was performed to determine the susceptibility of bacteria to the selected antibiotics. We used discs soaked with the antibiotic of a well-defined concentration (BioMerioux) (Table 2) and the minimal inhibitory concentration test was carried out, using E-tests (Oxoid) (Table 3).
(§2) A McFarland's 0.5 inoculum was prepared from each strain's culture, using a densitometer (EMO). Then, using sterile cotton swabs, the suspension of bacterial cells was spread on dishes with ready-to-use MHA medium (Oxoid), and after 15 minutes, discs soaked with antibiotics at defined concentrations were placed on them.
(§3) The dishes were incubated at 25-30° C., and the results were read after 24 and 48 hours. The measure of susceptibility of a tested strain to a given antibiotic was the size of the inhibition zone which formed around the disc soaked with the antibiotic. The results read (sizes of zones measured in mm) were compared with the data contained in the European Committee on Antimicrobial Susceptibility Testing (EUCAST) standards from 2010 (Table 4).
(§4) The measure of susceptibility of the tested bacterial strain to a given antibiotic was the size of the inhibition zone which formed around the disc (Table 5).

[2] = tested on: Arthrobacter sp. strain 1N; experiment: Disc diffusion antibiotic susceptibility
Description: as §1, §2, §3, §4

[3] = tested on: Brevundimonas sp. strain 2N; experiment: Disc diffusion antibiotic susceptibility
Description: as §1, §2, §3, §4

[4] = tested on: Brevundimonas sp. strain 5N; experiment: Disc diffusion antibiotic susceptibility
Description: as §1, §2, §3, §4

[5] = tested on: Brevundimonas sp. strain 6N; experiment: Disc diffusion antibiotic susceptibility
Description: as §1, §2, §3, §4

[6] = tested on: Pseudomonas sp. strain 3G; experiment: Disc diffusion antibiotic susceptibility
Description: as §1, §2, §3, §4

[7] = tested on: Pseudomonas sp. strain 4G; experiment: Disc diffusion antibiotic susceptibility
Description: as §1, §2, §3, §4

[8] = tested on: Stenotrophomonas sp. strain 2L; experiment: Disc diffusion antibiotic susceptibility
Description: as §1, §2, §3, §4

[9] = tested on: Stenotrophomonas sp. strain 3N; experiment: Disc diffusion antibiotic susceptibility
Description: as §1, §2, §3, §4

[10] = tested on: Stenotrophomonas sp. strain 5L; experiment: Disc diffusion antibiotic susceptibility
Description: as §1, §2, §3, §4

[11] = tested on: Stenotrophomonas sp. strain 6L; experiment: Disc diffusion antibiotic susceptibility
Description: as §1, §2, §3, §4

[12] = tested on: Achromobacter sp. strain 4P; experiment: Antibiotic MIC by E-test; conditions: Achromobacter, 24 h, read-out: MIC threshold values for a given antibiotic
Description: as §1
(§5) In the next stage of the research, MIC values of a given antibiotic for the investigated strains were determined, meaning the lowest concentration of the drug, expressed in mg/L, determined in vitro, which inhibits the growth of bacteria at a defined inoculum density, within a given time (Hryniewicz et at, 2001). These studies allow for the closer determination of the degree of susceptibility of bacteria to the applied antibiotics.
(§6) A bacterial suspension was evenly distributed on dishes with ready-to-use MHA medium (Oxoid), and then plastic testing strips (E-tests) soaked with an antibiotic with a concentration gradient were placed thereon. The dishes were incubated at 25-30° C. for 24 h, and the test results were read after this time.
(§7) The intersection of elliptical zone of inhibition, which appeared around the test strip, with the value indicator on the gradient scale of the strip, determined the lowest concentration of antibiotic, inhibiting growth of the microorganism (MIC). Similarly as in the disc diffusion method, the obtained results were compared with the guidelines contained in the relevant standards.

[13] = tested on: Arthrobacter sp. strain 1N; experiment: Antibiotic MIC by E-test; conditions: Arthrobacter, 24 h, read-out: MIC threshold values for a given antibiotic
Description: as §1, §5, §6, §7

[14] = tested on: Brevundimonas sp. strain 2N; experiment: Antibiotic MIC by E-test; conditions: Brevundimonas, 24 h, read-out: MIC threshold values for a given antibiotic
Description: as §1, §5, §6, §7

[15] = tested on: Brevundimonas sp. strain 5N; experiment: Antibiotic MIC by E-test; conditions: Brevundimonas, 24 h, read-out: MIC threshold values for a given antibiotic
Description: as §1, §5, §6, §7

[16] = tested on: Brevundimonas sp. strain 6N; experiment: Antibiotic MIC by E-test; conditions: Brevundimonas, 24 h, read-out: MIC threshold values for a given antibiotic
Description: as §1, §5, §6, §7

[17] = tested on: Pseudomonas sp. strain 3G; experiment: Antibiotic MIC by E-test; conditions: Pseudomonas, 24 h, read-out: MIC threshold values for a given antibiotic
Description: as §1, §5, §6, §7

[18] = tested on: Pseudomonas sp. strain 4G; experiment: Antibiotic MIC by E-test; conditions: Pseudomonas, 24 h, read-out: MIC threshold values for a given antibiotic
Description: as §1, §5, §6, §7

[19] = tested on: Stenotrophomonas sp. strain 2L; experiment: Antibiotic MIC by E-test; conditions: Stenotrophomonas, 24 h, read-out: MIC threshold values for a given antibiotic
Description: as §1, §5, §6, §7

[20] = tested on: Stenotrophomonas sp. strain 3N; experiment: Antibiotic MIC by E-test; conditions: Stenotrophomonas, 24 h, read-out: MIC threshold values for a given antibiotic
Description: as §1, §5, §6, §7

[21] = tested on: Stenotrophomonas sp. strain 5L; experiment: Antibiotic MIC by E-test; conditions: Stenotrophomonas, 24 h, read-out: MIC threshold values for a given antibiotic
Description: as §1, §5, §6, §7

[22] = tested on: Stenotrophomonas sp. strain 6L; experiment: Antibiotic MIC by E-test; conditions: Stenotrophomonas, 24 h, read-out: MIC threshold values for a given antibiotic
Description: as §1, §5, §6, §7

Compound | Size of the growth inhibition zone ([1]; 24 h) | Size of the growth inhibition zone ([2]; 24 h) | Size of the growth inhibition zone ([3]; 24 h) | Size of the growth inhibition zone ([4]; 24 h) | Size of the growth inhibition zone ([5]; 24 h) | Size of the growth inhibition zone ([6]; 24 h) | Size of the growth inhibition zone ([7]; 24 h) | Size of the growth inhibition zone ([8]; 24 h) | Size of the growth inhibition zone ([9]; 24 h) | Size of the growth inhibition zone ([10]; 24 h) | MIC ([13]; strain 1N, E-test) | MIC [14] | MIC [15] | MIC [16] | MIC [17] | MIC [18] | MIC [19] | MIC [20] | MIC [21] | MIC [22] | also measured
Cc1cc(NS(=O)(=O)c2ccc(N)cc2)no1 [RL, sulfamethoxazole] | 0 mm | 0 mm | 0 mm | 0 mm | 0 mm | 0 mm | 0 mm | 0 mm | 0 mm | 0 mm | 12 µg/mL (≈ 47.4 µM) | 12 µg/mL (≈ 47.4 µM) | ≥ 1020 µg/mL | ≥ 1020 µg/mL | ≥ 1020 µg/mL | ≥ 1020 µg/mL | 6 µg/mL (≈ 23.7 µM) | 12 µg/mL (≈ 47.4 µM) | 8 µg/mL (≈ 31.6 µM) | 12 µg/mL (≈ 47.4 µM) | Size of the growth inhibition zone ([11]; 24 h): 0 mm; MIC ([12]; strain 4P, E-test): 12 µg/mL (≈ 47.4 µM)
CO/N=C(\C(=O)N[C@@H]1C(=O)N2C(C(=O)O)=C(CSc3nc(=O)c(=O)[nH]n3C)CS[C@H]12)c1csc(N)n1 [TX, ceftriaxone] |  |  |  |  |  |  |  |  |  |  | ≥ 256 µg/mL | ≥ 256 µg/mL | ≥ 256 µg/mL | ≥ 256 µg/mL | ≥ 256 µg/mL | ≥ 256 µg/mL | ≥ 256 µg/mL | ≥ 256 µg/mL | ≥ 256 µg/mL | ≥ 256 µg/mL | MIC [12]: 16 µg/mL (≈ 28.9 µM)
[H]/N=C(/N)N[C@H]1[C@H](O)[C@@H](O)[C@H](O[C@@H]2O[C@@H](C)[C@](O)(C=O)[C@H]2O[C@@H]2O[C@@H](CO)[C@H](O)[C@@H](O)[C@@H]2NC)[C@@H](N/C(N)=N\[H])[C@@H]1O [S, streptomycin] | 0 mm | 12 mm | 0 mm | 0 mm | 0 mm | 10 mm | 0 mm | 16 mm | 0 mm | 8 mm | 48 µg/mL (≈ 82.5 µM) | 384 µg/mL (≈ 660 µM) | 64 µg/mL (≈ 110 µM) | ≥ 1020 µg/mL | ≥ 1020 µg/mL | ≥ 1020 µg/mL | 64 µg/mL (≈ 110 µM) | 384 µg/mL (≈ 660 µM) | 64 µg/mL (≈ 110 µM) | ≥ 1020 µg/mL | Size of the growth inhibition zone ([2]; 48 h): 10 mm; Size of the growth inhibition zone ([8]; 48 h): 10 mm; Size of the growth inhibition zone ([11]; 24 h): 0 mm; MIC ([12]; strain 4P, E-test): 96 µg/mL (≈ 165 µM)
CC1(C)S[C@@H]2[C@H](NC(=O)Cc3ccccc3)C(=O)N2[C@H]1C(=O)O [P, penicillin G] | 0 mm | 0 mm | 0 mm | 0 mm | 0 mm | 0 mm | 0 mm | 0 mm | 0 mm | 0 mm | ≥ 32 µg/mL | ≥ 32 µg/mL | ≥ 32 µg/mL | ≥ 32 µg/mL | ≥ 32 µg/mL | ≥ 32 µg/mL | ≥ 32 µg/mL | ≥ 32 µg/mL | ≥ 32 µg/mL | ≥ 32 µg/mL | Size of the growth inhibition zone ([11]; 24 h): 0 mm; MIC ([12]; strain 4P, E-test): ≥ 32 µg/mL
CC[C@H]1OC(=O)[C@H](C)[C@@H](O[C@H]2C[C@@](C)(OC)[C@@H](O)[C@H](C)O2)[C@H](C)[C@@H](O[C@@H]2O[C@H](C)C[C@H](N(C)C)[C@H]2O)[C@](C)(O)C[C@@H](C)C(=O)[C@H](C)[C@@H](O)[C@]1(C)O [E, erythromycin] | 0 mm | 0 mm | 0 mm | 0 mm | 0 mm | 0 mm | 0 mm | 0 mm | 0 mm | 0 mm | 256 µg/mL (≈ 349 µM) | 128 µg/mL (≈ 174 µM) | 256 µg/mL (≈ 349 µM) | 256 µg/mL (≈ 349 µM) | ≥ 256 µg/mL | ≥ 256 µg/mL | ≥ 256 µg/mL | ≥ 256 µg/mL | ≥ 256 µg/mL | ≥ 256 µg/mL | Size of the growth inhibition zone ([11]; 24 h): 0 mm; MIC ([12]; strain 4P, E-test): 256 µg/mL (≈ 349 µM)
CN(C)[C@@H]1C(O)=C(C(N)=O)C(=O)[C@@]2(O)C(O)=C3C(=O)c4c(O)cccc4[C@@](C)(O)[C@H]3C[C@@H]12 [TE, tetracycline] | 19 mm | 17 mm | 18 mm | 18 mm | 17 mm | 17 mm | 19 mm | 17 mm | 19 mm | 19 mm | 6 µg/mL (≈ 13.5 µM) | 6 µg/mL (≈ 13.5 µM) | 6 µg/mL (≈ 13.5 µM) | 6 µg/mL (≈ 13.5 µM) | 6 µg/mL (≈ 13.5 µM) | 6 µg/mL (≈ 13.5 µM) | 6 µg/mL (≈ 13.5 µM) | 6 µg/mL (≈ 13.5 µM) | 8 µg/mL (≈ 18 µM) | 6 µg/mL (≈ 13.5 µM) | Size of the growth inhibition zone ([1]; 48 h): 0 mm; Size of the growth inhibition zone ([2]; 48 h): 0 mm; Size of the growth inhibition zone ([3]; 48 h): 0 mm; Size of the growth inhibition zone ([4]; 48 h): 0 mm; Size of the growth inhibition zone ([5]; 48 h): 0 mm; Size of the growth inhibition zone ([6]; 48 h): 0 mm; Size of the growth inhibition zone ([7]; 48 h): 0 mm; Size of the growth inhibition zone ([8]; 48 h): 0 mm; Size of the growth inhibition zone ([9]; 48 h): 0 mm; Size of the growth inhibition zone ([10]; 48 h): 0 mm; Size of the growth inhibition zone ([11]; 24 h): 17 mm; Size of the growth inhibition zone ([11]; 48 h): 0 mm; MIC ([12]; strain 4P, E-test): 12 µg/mL (≈ 27 µM)
CCn1cc(C(=O)O)c(=O)c2cc(F)c(N3CCNCC3)cc21 [NX, norfloxacin] |  |  |  |  |  |  |  |  |  |  | 96 µg/mL (≈ 301 µM) | 256 µg/mL (≈ 802 µM) | 128 µg/mL (≈ 401 µM) | 96 µg/mL (≈ 301 µM) | 192 µg/mL (≈ 601 µM) | > 256 µg/mL | 128 µg/mL (≈ 401 µM) | 128 µg/mL (≈ 401 µM) | 32 µg/mL (≈ 100 µM) | 128 µg/mL (≈ 401 µM) | MIC ([12]; strain 4P, E-test): 256 µg/mL (≈ 802 µM)
CN[C@H](CC(C)C)C(=O)N[C@H]1C(=O)N[C@@H](CC(N)=O)C(=O)N[C@H]2C(=O)N[C@H]3C(=O)N[C@H](C(=O)N[C@H](C(=O)O)c4cc(O)cc(O)c4-c4cc3ccc4O)[C@H](O)c3ccc(c(Cl)c3)Oc3cc2cc(c3O[C@@H]2O[C@H](CO)[C@@H](O)[C@H](O)[C@H]2O[C@H]2C[C@](C)(N)[C@H](O)[C@H](C)O2)Oc2ccc(cc2Cl)[C@H]1O [VA, vancomycin] | 0 mm | 0 mm | 0 mm | 0 mm | 0 mm | 0 mm | 0 mm | 0 mm | 0 mm | 0 mm |  |  |  |  |  |  |  |  |  |  | Size of the growth inhibition zone ([11]; 24 h): 0 mm; MIC [13]: ≥ 256 µg/mL

— patent US9012200B2, “Composition of bacterial strains, bioremediation mixture and use of this composition for the removal of contaminants from the soil and the method for purifying the soil contaminants” (priority 2012, dated 2015)
